Reference: the supplement of paper PMC10307832

Experiments:
Experiment in all cases: relative viability (nuclei count vs DMSO), 5 days (fraction); higher = more cells survive
GW-2580 + Pictilisib = compound: COC1=CC=C(C=C1)COC2=C(C=C(C=C2)CC3=CN=C(N=C3N)N)OC [GW-2580] + CS(=O)(=O)N1CCN(Cc2cc3nc(-c4cccc5[nH]ncc45)nc(N4CCOCC4)c3s2)CC1 [Pictilisib] (partner 1 µM)
In short: (§1)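 Values are medians from duplicate plates. Each reflects relative viability, defined as the nuclei count of treated wells over that of vehicle wells. Lung cancer cell lines in 1536-well plates were pin-tool dosed one day after seeding with one drug alone or with a fixed anchor-drug dose plus five library-drug doses (not always all listed) in √10 steps, then fixed, stained and imaged at 4× after 5 days.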

Fedratinib + Phenformin = compound: Cc1cnc(Nc2ccc(OCCN3CCCC3)cc2)nc1Nc1cccc(S(=O)(=O)NC(C)(C)C)c1 [Fedratinib] + N=C(N)NC(=N)NCCc1ccccc1 [Phenformin] (partner 250 µM)
In short: as §1

GW-2580 + AZD7762 = compound: COC1=CC=C(C=C1)COC2=C(C=C(C=C2)CC3=CN=C(N=C3N)N)OC [GW-2580] + NC(=O)Nc1cc(-c2cccc(F)c2)sc1C(=O)N[C@H]1CCCNC1 [AZD7762] (partner 0.2 µM)
In short: as §1

GW-2580 + Trametinib = compound: COC1=CC=C(C=C1)COC2=C(C=C(C=C2)CC3=CN=C(N=C3N)N)OC [GW-2580] + CC(=O)Nc1cccc(-n2c(=O)n(C3CC3)c(=O)c3c(Nc4ccc(I)cc4F)n(C)c(=O)c(C)c32)c1 [Trametinib] (partner 0.02 µM)
In short: as §1

GW-2580 + Linsitinib = compound: COC1=CC=C(C=C1)COC2=C(C=C(C=C2)CC3=CN=C(N=C3N)N)OC [GW-2580] + C[C@]1(O)C[C@@H](c2nc(-c3ccc4ccc(-c5ccccc5)nc4c3)c3c(N)nccn32)C1 [Linsitinib] (partner 1 µM)
In short: as §1

| Cell Line | relative viability (GW-2580 + Pictilisib; first compound 0.08 µM) | relative viability (GW-2580 + Pictilisib; first compound 0.8 µM) | relative viability (GW-2580 + Pictilisib; first compound 2.53 µM) | relative viability (GW-2580 + Pictilisib; first compound 8 µM) | relative viability (Fedratinib + Phenformin; first compound 0.1 µM) | relative viability (Fedratinib + Phenformin; first compound 0.3162 µM) | relative viability (Fedratinib + Phenformin; first compound 1 µM) | relative viability (GW-2580 + AZD7762; first compound 0.08 µM) | relative viability (GW-2580 + AZD7762; first compound 0.8 µM) | relative viability (GW-2580 + AZD7762; first compound 2.53 µM) | relative viability (GW-2580 + AZD7762; first compound 8 µM) | relative viability (GW-2580 + Trametinib; first compound 0.08 µM) | relative viability (GW-2580 + Trametinib; first compound 0.8 µM) | relative viability (GW-2580 + Trametinib; first compound 2.53 µM) | relative viability (GW-2580 + Trametinib; first compound 8 µM) | relative viability (GW-2580 + Linsitinib; first compound 0.08 µM) | relative viability (GW-2580 + Linsitinib; first compound 0.8 µM) | relative viability (GW-2580 + Linsitinib; first compound 2.53 µM) | relative viability (GW-2580 + Linsitinib; first compound 8 µM) |
| --- | --- | --- | --- | --- | --- | --- | --- | --- | --- | --- | --- | --- | --- | --- | --- | --- | --- | --- | --- |
| NCI-H460 | 0.369 | 0.452 | 0.248 | 0.4 | 0.382 | 0.516 | 0.459 | 0.595 | 0.714 | 0.383 | 0.492 | 0.286 | 0.168 | 0.0886 | 0.187 | 1.04 | 1.17 | 0.604 | 0.795 |
| HCC-15 | 0.79 | 0.824 | 0.653 | 0.677 | 0.43 | 0.464 | 0.399 | 1.02 | 1.44 | 1.21 | 1.39 | 0.393 | 0.412 | 0.337 | 0.307 | 0.989 | 1.02 | 0.834 | 0.785 |
| LCLC-103H | 0.648 | 0.638 | 0.649 | 0.599 | 0.32 | 0.284 | 0.363 | 0.884 | 0.838 | 0.648 | 0.716 | 0.725 | 0.716 | 0.64 | 0.637 | 1.07 | 1.45 | 1.08 | 1.09 |
| NCI-H441 | 0.505 | 0.587 | 0.379 | 0.436 | 0.812 | 0.747 | 0.727 | 1.13 | 1.26 | 1.06 | 1.08 | 0.409 | 0.463 | 0.483 | 0.374 | 0.425 | 0.763 | 0.351 | 0.625 |
| EPLC-272H | 0.254 | 0.36 | 0.267 | 0.262 | 0.3 | 0.32 | 0.173 | 0.221 | 0.315 |  | 0.297 | 0.281 | 0.273 |  | 0.32 | 1.05 | 1.38 | 1.24 | 1.14 |
